Like-named read-outs stand apart in the source and are kept apart here. Values belong to the compound of their own block, whether it stands above or below them.
Tests used:
[1] = molecular target: T1, longitudinal muscle from the intact ileum of guinea-pigs (histamine) (Cavia porcellus, UniProt P31389); experiment: In vitro antihistamine activity: shift of histamine concentration-response curves (Schild plot), isolated guinea-pig ileum longitudinal muscle; format: cell-based; settings: vs histamine, one hour incubation with test compound, 60 min
T1 construct: The longitudinal muscle was isolated from the intact ileum of guinea-pigs; from tissue; host or cells: longitudinal muscle of guinea-pig ileum (Hartley, male)
Procedure: A. In vitro antihistamine activity: The longitudinal muscle was isolated from the intact ileum of guinea-pigs (Hartley, male 250-400 g) and placed in an organ bath under 300 mg tension. After one hour of equilibration, cumulative concentration-response curves (Van Rossum, J. M., Arch. Int. Pharmacodyn. Ther. 143, 299-330, 1963) to histamine were obtained. Following washing, the tissues were incubated for one hour with the test compound and then a second histamine concentration-response curve was run. Shifts to the right of the agonist concentration-response curve produced by the antagonists were used to construct Schild plots (Arunlakshana, O. and Schild, H. O., Br. J. Pharmacol. 14, 48-58, 1959). Regression of Log (dr-l) on Log [B], where dr is an equiactive response in the presence and absence of antagonist and [B] is the molar concentration of antagonist, allowed an estimate of pA2, i.e. the negative log of the concentration of antagonist which shifts the control histamine concentration response curve 2X to the right.

[2] = cited from earlier work
[3] = background statement on promethazine; cited from earlier work

T1 sequence (P31389 whole entry): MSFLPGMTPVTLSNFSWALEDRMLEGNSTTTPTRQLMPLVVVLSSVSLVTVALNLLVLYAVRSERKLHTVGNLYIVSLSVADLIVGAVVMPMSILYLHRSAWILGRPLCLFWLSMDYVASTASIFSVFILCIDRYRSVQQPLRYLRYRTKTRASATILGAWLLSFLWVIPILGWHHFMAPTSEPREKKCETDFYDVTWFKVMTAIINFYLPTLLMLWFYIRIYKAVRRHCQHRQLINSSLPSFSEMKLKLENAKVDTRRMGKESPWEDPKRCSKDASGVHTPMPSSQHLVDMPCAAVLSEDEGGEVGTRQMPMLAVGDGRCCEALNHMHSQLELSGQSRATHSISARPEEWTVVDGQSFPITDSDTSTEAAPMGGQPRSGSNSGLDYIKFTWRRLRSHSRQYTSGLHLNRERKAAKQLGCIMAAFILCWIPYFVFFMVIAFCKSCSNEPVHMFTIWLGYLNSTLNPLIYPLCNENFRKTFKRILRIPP

pA2 [1]: 7.8
Compound: CN(C)CCCN1c2ccccc2Sc2ccc(S(=O)(=O)O)cc21 [Example 2, 10-(3'-N,N-Dimethylaminopropyl)phenothiazine-2-sulphonic acid hemihydrate]

Compound: CC(CN1c2ccccc2Sc2ccccc21)N(C)C (centres unmarked) [promethazine, 10-(2-dimethylaminopropyl)phenothiazine]
sedation or drowsiness ([2]; in some patients, antihistamines now in use): cause sedation or drowsiness in some patients | anticholinergic activity [3]: potent anticholinergic activity

Compound: COc1ccc(CN(CCN(C)C)c2ccccn2)cc1 [pyrilamine]
sedation or drowsiness ([2]; in vivo): cause sedation or drowsiness in some patients

Compound: Cc1ccc(/C(=C\CN2CCCC2)c2ccccn2)cc1 [triprolidine]
sedation or drowsiness ([2]; in vivo): cause sedation or drowsiness in some patients
